# Measured values as given in patent US9089572B2, “Inhibitors of p97” (California Institute of Technology, priority 2008, dated 2015).
# Columns and labels:
# DU145 = experiment: MTT cell growth assay, DU145; format: cell-based; details: Homo sapiens, DU-145, 48 or 72 h, read-out: Cell line inhibition of growth GI50 DU145
# Protocol: (§1) To probe further the effect of compound 2 and related compounds 1, 3, 5, 6 and 7, various concentrations of these compounds were added to 13 different cell lines and incubated for 48 or 72 h. An MTT assay was then performed to evaluate cell growth and survival.
# CCRF-CEM = experiment: MTT cell growth assay, CCRF-CEM; format: cell-based; details: Homo sapiens, 48 or 72 h, read-out: Cell line inhibition of growth GI50 CCRF-CEM
# Protocol: as §1
# Hamster NSF = Hamster NSF (Cricetulus griseus, UniProt P18708); experiment: In vitro ATP hydrolysis, NSF; format: biochemical
# Protocol: To determine whether cysteine 522 is necessary for inhibition of p97 by compound 2, a mutant of p97 was constructed in which cysteine 522 was converted to either alanine (C522A-mp97) or threonine (C522T-mp97). The IC50 values of compound 2 were measured the against various enzymes during a 20-minute preincubation (see Table 2). Mutation of cysteine 522 in p97 to either alanine or threonine decreased sensitivity to compound 2 by greater than 100-fold. On the other hand, yeast Cdc48, which normally is quite resistant to compound 2, became nearly 30-fold more sensitive to the compound upon introduction of a cysteine in place of threonine 532.
# To further address the specificity of inhibition by compound 2, its activity against two other AAA ATPases, NSF and the 26S proteasome, was assayed. Although NSF is known to be sensitive to thiol-reactive agents, it was more than 100-fold less sensitive to compound 2 than p97 (Table 2). […] The results with NSF and the 26S proteasome are noteworthy because both the active D1 domain of NSF and the Rpt3 subunit of the 26S proteasome have a cysteine in the position analogous to cysteine 522 of p97 (FIG. 3).
# Sequence of Hamster NSF (P18708 whole entry): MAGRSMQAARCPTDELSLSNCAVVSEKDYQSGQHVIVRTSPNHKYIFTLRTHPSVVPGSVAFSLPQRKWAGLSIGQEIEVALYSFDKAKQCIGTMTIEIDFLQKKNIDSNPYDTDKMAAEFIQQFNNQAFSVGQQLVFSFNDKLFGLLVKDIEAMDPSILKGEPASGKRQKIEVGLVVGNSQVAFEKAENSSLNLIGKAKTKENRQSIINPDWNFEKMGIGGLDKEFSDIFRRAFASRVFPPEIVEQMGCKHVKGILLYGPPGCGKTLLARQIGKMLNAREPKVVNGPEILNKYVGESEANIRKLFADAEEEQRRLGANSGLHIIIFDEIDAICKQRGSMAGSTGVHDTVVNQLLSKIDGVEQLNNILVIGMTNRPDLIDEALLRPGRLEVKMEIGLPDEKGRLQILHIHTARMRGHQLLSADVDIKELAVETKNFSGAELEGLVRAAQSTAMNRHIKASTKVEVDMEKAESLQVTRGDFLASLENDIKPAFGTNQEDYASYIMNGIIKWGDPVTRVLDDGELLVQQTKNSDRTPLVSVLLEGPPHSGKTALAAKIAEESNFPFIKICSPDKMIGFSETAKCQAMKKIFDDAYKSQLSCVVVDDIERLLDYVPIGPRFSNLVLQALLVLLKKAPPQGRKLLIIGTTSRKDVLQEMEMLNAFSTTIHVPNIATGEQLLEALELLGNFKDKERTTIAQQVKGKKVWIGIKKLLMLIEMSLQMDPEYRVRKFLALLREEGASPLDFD
smiles,measurement,setting,value
C=CC(=O)Nc1ncnc2c1c(-c1ccccc1)nn2C(C)(C)C [Compound 2],GI50,DU145,3.6 ± 1.5 µM
same,GI50,CCRF-CEM,1.6 ± 0.8 µM
same,IC50,Hamster NSF; 20-minute preincubation,105 ± 31 µM
same,NSF less sensitive than p97,Hamster NSF; NSF vs p97,more than 100 fold
